Data: PubChem BioAssay (NCI)
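Where inhibition never reached the appropriate level, the endpoint shown equals the highest concentration tested. Otherwise, values were interpolated linearly from a five-concentration, 48-hour dose response in 96-well plates. GI50: concentration for 50% inhibition of growth. TGI is the concentration that stops growth completely.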

Columns and labels:
Experiment in all cases: DTP human tumour cell line panel, 48 h
[1] = system: NCI-H522 lung
[2] = system: CAKI-1 renal
[3] = system: OVCAR-3 ovarian
[4] = system: MDA-MB-435
[5] = system: OVCAR-4 ovarian
[6] = system: M14 melanoma
[7] = system: SF-539 CNS
[8] = system: MOLT-4 leukemia
[9] = system: A549 NSCLC
[10] = system: U251 CNS
[11] = system: K-562 leukemia
[12] = system: SN12C renal
[13] = system: RPMI-8226 leukemia
[14] = system: MDA-MB-231 breast
[15] = system: OVCAR-5 ovarian
[16] = system: HOP-62 NSCLC
[17] = system: CCRF-CEM leukemia
[18] = system: SK-OV-3 ovarian
[19] = system: NCI-H23 lung
[20] = system: SNB-75 CNS
[21] = system: SK-MEL-5 melanoma
[22] = system: A498 renal
[23] = system: PC-3 prostate
[24] = system: COLO 205 colon
[25] = system: 786-0 renal
[26] = system: SW-620 colon
[27] = system: SF-268 CNS
[28] = system: UACC-257 melanoma
[29] = system: LOX IMVI melanoma
[30] = system: SF-295 CNS
[31] = system: HS 578T breast
[32] = system: SK-MEL-2 melanoma
[33] = system: NCI-H460 lung
[34] = system: NCI-H226 lung
[35] = system: UO-31 renal
[36] = system: SK-MEL-28 melanoma
[37] = system: ACHN renal
[38] = system: HT29 colon
[39] = system: IGROV1 ovarian
[40] = system: HCT-116 colon
[41] = system: HCT-15 colon
[42] = system: OVCAR-8 ovarian
[43] = system: SNB-19 CNS
[44] = system: DU-145 prostate
[45] = system: HL-60(TB) leukemia
[46] = system: KM12 colon
[47] = system: BT-549 breast
[48] = system: NCI/ADR-RES ovarian
[49] = system: T-47D breast
[50] = system: MCF7 breast
[51] = system: EKVX NSCLC
[52] = system: TK-10 renal
[53] = system: UACC-62 melanoma

O=C1C(=O)/C(=C/c2ccccc2)CCCCCC/C1=C/c1ccccc1
GI50 [1]: 4.68 µM | TGI [1]: 16.3 µM | GI50 [2]: 3.11 µM | TGI [2]: 18.6 µM | GI50 [3]: 1.92 µM | TGI [3]: 3.63 µM | GI50 [4]: 2.21 µM | TGI [4]: 5.05 µM | GI50 [5]: 2.78 µM | TGI [5]: 8.47 µM | GI50 [6]: 2.29 µM | TGI [6]: 5.31 µM | GI50 [7]: 1.98 µM | TGI [7]: 3.95 µM | GI50 [8]: 3.17 µM | TGI [8]: 10.7 µM | GI50 [9]: 2.33 µM | TGI [9]: 7.16 µM | GI50 [10]: 1.62 µM | TGI [10]: 2.97 µM | GI50 [11]: 2.94 µM | TGI [11]: 8.77 µM | GI50 [12]: 2.35 µM | TGI [12]: 5.58 µM | GI50 [13]: 1.9 µM | TGI [13]: 5.96 µM | GI50 [14]: 2.63 µM | TGI [14]: 6.52 µM | GI50 [15]: 2.68 µM | TGI [15]: 7.93 µM | GI50 [16]: 3.44 µM | TGI [16]: 10.5 µM | GI50 [17]: 3.05 µM | TGI [17]: 17.9 µM | GI50 [18]: 8.9 µM | TGI [18]: 70.3 µM | GI50 [19]: 3.38 µM | TGI [19]: 13.7 µM | GI50 [20]: 2.86 µM | TGI [20]: 17.6 µM | GI50 [21]: 3.25 µM | TGI [21]: 12.1 µM | GI50 [22]: 13.7 µM | TGI [22]: 28.4 µM | GI50 [23]: 3.19 µM | TGI [23]: 17.1 µM | GI50 [24]: 10.1 µM | TGI [24]: 32.6 µM | GI50 [25]: 1.82 µM | TGI [25]: 3.33 µM | GI50 [26]: 3.21 µM | TGI [26]: 11.6 µM | GI50 [27]: 2.74 µM | TGI [27]: 8.28 µM | GI50 [28]: 2.3 µM | TGI [28]: 6.15 µM | GI50 [29]: 1.82 µM | TGI [29]: 3.53 µM | GI50 [30]: 2.58 µM | TGI [30]: 7 µM | GI50 [31]: 8.06 µM | TGI [31]: > 100 µM | GI50 [32]: 16.6 µM | TGI [32]: 34.4 µM | GI50 [33]: 2.43 µM | TGI [33]: 6.09 µM | GI50 [34]: 1.76 µM | TGI [34]: 3.54 µM | GI50 [35]: 1.89 µM | TGI [35]: 3.88 µM | GI50 [36]: 3.9 µM | TGI [36]: 15.4 µM | GI50 [37]: 2.57 µM | TGI [37]: 6.5 µM | GI50 [38]: 2.04 µM | TGI [38]: 3.74 µM | GI50 [39]: 2.93 µM | TGI [39]: 8.7 µM | GI50 [40]: 1.5 µM | TGI [40]: 2.82 µM | GI50 [41]: 1.68 µM | TGI [41]: 3.24 µM | GI50 [42]: 3.14 µM | TGI [42]: 12.7 µM | GI50 [43]: 5.3 µM | TGI [43]: 20.2 µM | GI50 [44]: 3.73 µM | TGI [44]: 14 µM | GI50 [45]: 2.96 µM | TGI [45]: 8.87 µM | GI50 [46]: 2.7 µM | TGI [46]: 6.4 µM | GI50 [47]: 2.33 µM | TGI [47]: 5 µM | GI50 [48]: 4.78 µM | TGI [48]: > 100 µM | GI50 [49]: 5.09 µM | TGI [49]: > 100 µM | GI50 [50]: 3.24 µM | TGI [50]: 31.8 µM

CC(=O)c1ccc(Nc2cc(-n3nnc4ccccc43)nc3ccccc23)cc1
GI50 [1]: 35.4 µM | TGI [1]: > 100 µM | GI50 [2]: 13.2 µM | TGI [2]: 35.2 µM | GI50 [3]: 14 µM | TGI [3]: 37.5 µM | GI50 [4]: 19.7 µM | TGI [4]: 94.6 µM | GI50 [5]: 10.7 µM | TGI [5]: 61.9 µM | GI50 [6]: 10.9 µM | TGI [6]: 44.6 µM | GI50 [9]: 32.3 µM | TGI [9]: > 100 µM | GI50 [10]: 14.4 µM | TGI [10]: 44.1 µM | GI50 [11]: > 100 µM | TGI [11]: > 100 µM | GI50 [12]: 6.24 µM | TGI [12]: 35.4 µM | GI50 [13]: 2.5 µM | TGI [13]: 14 µM | GI50 [14]: 4.41 µM | TGI [14]: 35.7 µM | GI50 [51]: 9.41 µM | TGI [51]: 67.4 µM | GI50 [15]: 26.2 µM | TGI [15]: > 100 µM | GI50 [16]: 4.51 µM | TGI [16]: 18.2 µM | GI50 [17]: 5.18 µM | TGI [17]: > 100 µM | GI50 [18]: 20.5 µM | TGI [18]: 43.4 µM | GI50 [19]: 15.8 µM | TGI [19]: 72.6 µM | GI50 [20]: 19.6 µM | TGI [20]: 60.5 µM | GI50 [21]: 26.6 µM | TGI [21]: 75.4 µM | GI50 [23]: 13.9 µM | TGI [23]: 72.4 µM | GI50 [24]: 30.6 µM | TGI [24]: > 100 µM | GI50 [25]: 11.9 µM | TGI [25]: 30.1 µM | GI50 [26]: > 100 µM | TGI [26]: > 100 µM | GI50 [27]: 25.1 µM | TGI [27]: > 100 µM | GI50 [28]: 45 µM | TGI [28]: > 100 µM | GI50 [29]: 13.4 µM | TGI [29]: > 100 µM | GI50 [30]: 4.96 µM | TGI [30]: 13.6 µM | GI50 [31]: 9.02 µM | TGI [31]: 28.8 µM | GI50 [32]: 27.6 µM | TGI [32]: > 100 µM | GI50 [52]: 9.46 µM | TGI [52]: 24.3 µM | GI50 [53]: 14.5 µM | TGI [53]: 62.8 µM | GI50 [33]: 29.1 µM | TGI [33]: > 100 µM | GI50 [34]: 14.8 µM | TGI [34]: 59.4 µM | GI50 [35]: 23 µM | TGI [35]: > 100 µM | GI50 [36]: 15.5 µM | TGI [36]: > 100 µM | GI50 [37]: 13.2 µM | TGI [37]: 26.9 µM | GI50 [38]: 12.9 µM | TGI [38]: > 100 µM | GI50 [39]: 55.7 µM | TGI [39]: > 100 µM | GI50 [40]: 32.9 µM | TGI [40]: > 100 µM | GI50 [41]: > 100 µM | TGI [41]: > 100 µM | GI50 [42]: 7.83 µM | TGI [42]: 43.4 µM | GI50 [43]: 47.6 µM | TGI [43]: > 100 µM | GI50 [44]: 14.6 µM | TGI [44]: 82 µM | GI50 [46]: 4.16 µM | TGI [46]: 25.6 µM | GI50 [47]: 16 µM | TGI [47]: 66.2 µM | GI50 [48]: 12 µM | TGI [48]: 46 µM | GI50 [49]: 18.9 µM | TGI [49]: 87.1 µM | GI50 [50]: 36.3 µM | TGI [50]: > 100 µM
